Data: patent US8563589B2, “Methods of treating neuropathic pain with benzimidazole derivative agonists of PPARgamma” (priority 2009, dated 2013)

Experiments:
[1] = system: Bennett neuropathic pain model; assay: Bennett (chronic constriction injury) neuropathic pain model, cold plate / cold allodynia test; type: in vivo, rat; conditions: for latency time to removal of the affected paw from a cold plate, difference from vehicle control: dosed orally at 100 mg/kg, measured one hour later, cold allodynia test, ANOVA p<0.05 (FIG. 1)
Experimental: FIG. 1—Efficacy of PPARγ agonists Muraglitizar and Tesaglitizar in Bennett animal model for neuropathic pain. PPAR agonist compounds and positive control carbamazepine were dosed orally at 100 mg/kg, and pain behavior was measured one hour later with the cold allodynia test, as the latency time to removal of the affected paw from a cold plate. Statistical analysis of raw data was performed by analysis of variance (ANOVA), with significance threshold set at p<0.05. Analgesic activity was determined as a statistically significant increase in latency time to paw withdrawal in treated animals as compared to vehicle-treated animals. Comparisons for statistically significant differences in latency times were made between PPAR agonist compound-treated animals and vehicle controls, between carbamazepine-treated animals and vehicle controls, and between PPAR agonist compound-treated animals and carbamazepine-treated animals from the same experiment. All statistically significant differences between compared groups are indicated by the brackets, with *=p<0.05, and **=p<0.001.
FIG. 3—Effect of carbamazepine (+ control) and 3-(2,4-dichlorobenzyl)-2-methyl-N-(pentylsulfonyl)-3H-benzimidazole-5-carboxamide (“Atx” in Figure) on the latency to lift paw from the cold plate 60 min following compound injection, in rats with the Bennett model of neuropathic pain. Data represent mean±SEM. Statistical analysis of data as for FIG. 1; *=p<0.05.
These models are based on three surgical procedures: (i) the spinal nerve ligation (SNL) [Kim, S, and J. Chung, An experimental model for peripheral neuropathy produced by segmental spinal nerve ligation in the rat. Pain, 1992. 50: p. 355-363]; (ii) the partial sciatic nerve lesion (Seltzer) [Seltzer, Z., R. Dubner, and Y. Shir, A novel behavioral model of neuropathic pain disorders produced in rats by partial sciatic nerve injury. Pain, 1990. 43: p. 205-218]; (iii) and the chronic constriction injury [Bennett, G. and Y. Xie, A peripheral mononeuropathy in rat that produces disorders of pain sensation like those seen in man. Pain, 1988. 33: p. 87-107]. The Bennett model was used, as described below.
Young adult, male Sprague Dawley rats (200-250 g) from Harlan were used. Upon receipt, animals were assigned unique identification numbers (tail marked) and housed 2-3 per cage in suspended polycarbonate rat cages with filter paper covering mesh shelf. Rats were acclimated for up to 7 days prior to surgery. […]
The apparatus consists of a cold plate (Ugo Basile Hot/Cold Plate) measuring 25 (w)×37 (d)×16 (h) cm with a 10 cm thick aluminum circular plate. […] Baseline responses were measured on the day prior to drug administration. Each animal was tested by placing it on the cold plate (set to 4 C) and the latency of paw withdrawal was recorded. […]

type 2 diabetes = conditions: Phase II; quoted from Meinke et al., Annual Reports in Medicinal Chemistry (2006); cited from earlier work
neurogenic pain model = conditions: reported in WO2006085686; cited from earlier work

Compound: COc1ccc(OC(=O)N(CC(=O)O)Cc2ccc(OCCc3nc(-c4ccccc4)oc3C)cc2)cc1 [Muraglitazar]
- latency time to removal of the affected paw from a cold plate, difference from vehicle control [1]: neither of Muraglitazar or Tesaglitazar showed any statistically significant difference from a vehicle control

Compound: CCCCCS(=O)(=O)NC(=O)c1ccc2nc(C)n(Cc3ccc(Cl)cc3Cl)c2c1 [Atx, 3-(2,4-dichlorobenzyl)-2-methyl-N-(pentylsulfonyl)-3H-benzimidazole-5-carboxamide]
- advantage for type 2 diabetes in clinical trials (type 2 diabetes): no advantage [for type 2 diabetes] was demonstrated in clinical trials
- latency to lift paw from the cold plate, analgesic activity compared to carbamazepine (+ control) ([1]; 60 min following compound injection, rats with the Bennett model (FIG. 3)): not significantly different from carbamazepine
- latency to lift paw from the cold plate, analgesic activity compared to vehicle ([1]; 60 min following compound injection, rats with the Bennett model, p<0.05 (FIG. 3)): analgesic activity which is significantly greater than vehicle alone

Compound: O=C(Nc1ccccc1)c1cc([N+](=O)[O-])ccc1Cl [GW9662, 2-chloro-5-nitro-N-phenylbenzamide]
- activity in a neurogenic pain model (neurogenic pain model): demonstrates activity in a neurogenic pain model

Compound: CCO[C@@H](Cc1ccc(OCCc2ccc(OS(C)(=O)=O)cc2)cc1)C(=O)O [Tesaglitazar]
- latency time to removal of the affected paw from a cold plate, difference from vehicle control [1]: neither of Muraglitazar or Tesaglitazar showed any statistically significant difference from a vehicle control
